Tests used:
[1] = test system: anesthetized thromboxane A2 challenged PAH-minipig; test: Haemodynamics in the anesthetized thromboxane challenged minipig (PAH minipig), inhaled nebulized solution: lung selectivity and duration of action; assay type: in vivo, Göttingen Minipigs
Experimental: Healthy Göttingen Minipigs® Ellegaard (Ellegaard, Denmark) of both sexes and having a weight of 2-6 kg were used. The animals were sedated by i.m. administration of about 25 mg/kg ketamine and about 10 mg/kg azaperone. Anaesthesia was initiated by i.v. administration of about 2 mg/kg ketamine and about 0.3 mg/kg midazolam. Maintenance of anaesthesia was by i.v. administration of about 7.5-30 mg/kg/h ketamine and about 1-4 mg/kg/h midazolam (rate of infusion 1-4 ml/kg/h) and about 150 μg/kg/h pancuronium bromide (for example Pancuronium-Actavis). After intubation, the animals were ventilated by the ventilator at a constant respiratory volume (10-12 ml/kg, 35 breaths/min; Avea®, Viasys Healthcare, USA, or Engström Carestation, GE Healthcare, Freiburg, Germany) such that an end-tidal CO2 concentration of about 5% was achieved. Ventilation was performed with room air, enriched with about 40% oxygen (normoxia). For the measurement of the haemodynamic parameters such as pulmonary arterial pressure (PAP), blood pressure (BP) and heart rate (HR), catheters were inserted into the carotid artery to measure the blood pressure, and a Swan-Ganz® catheter was introduced in a flow-directed manner via the jugular vein into the pulmonary artery. The haemodynamic signals were recorded and evaluated by means of pressure transducers (Combitransducer, B. Braun, Melsungen, Germany)/amplifiers and Ponemah® as data acquisition software.
After the instruments have been placed into the animals, continuous infusion of a thromboxane A2 analog was initiated to increase the pulmonary arterial pressure. About 0.3-0.75 μg/kg/min of 9,11-didesoxy-9α,11α-epoxymethanoprostaglandine F2α (U-44069; Sigma, cat. no. D0400, or Cayman Chemical Company, cat. no. 16440), dissolved in physiological saline, were infused to achieve an increase of the mean pulmonary arterial pressure to values of over 25 mmHg. 30 minutes after the start of the infusion, a plateau was reached, and the experiment was started.
The test substances were administered as i.v. infusion or by inhalation. For the preparation of the solution for inhalation, the following procedure was adopted: For an animal having a weight of 4 kg, to prepare the stock solution (300 μg/kg), 1.2 mg of the test compound were weighed out and dissolved in a total volume of 3 ml (1% DMSO, 99% 0.2% strength citric acid solution, 1 n aqueous sodium hydroxide solution to adjust the pH to 8). The solution was then diluted to the concentration employed using 0.2% strength citric acid which had been adjusted to pH 8 beforehand with aqueous sodium hydroxide solution. In each test, 3 ml of the solution of test compound per 4 kg animal were nebulized in the inhalation arm of the respiratory circuit using the Aeroneb® Pro nebulizer system. The mean nebulization time was about 7 min from the start of the nebulization.
With respect to a prediction of the duration of action for human studies comparative example 11 was compared in the PAH minipig model after inhaled application to Ventavis® (=Iloprost, 10 μg/kg nominal dose), which we used as a clinical reference. […] Therefore, the duration of action is more than 6 times longer compared to Ventavis in this preclinical animal model.

[2] = test system: chronic ovalbumin asthma mice model; test: Chronic ovalbumin asthma mice model; settings: mouse, in vivo
[3] = test system: conscious hypoxia challenged dog; test: Conscious hypoxia challenged dog model, duration of action (PAP reduction); assay type: in vivo
[4] = test system: plasma proteins; test: Protein binding via Transil assay, rat plasma; assay type: in vitro ADME
Excerpt: (§1) The distribution of a test substance between Transil® (phosphatidylcholine lipid bilayers immobilized on silica beads) and plasma is a characteristic feature of any pharmaceutical compound and is dependent on its extent of binding to plasma proteins. By comparing the distribution between Transil® and buffer with the distribution between Transil® and plasma of any species of interest, the unbound fraction in the plasma of the respective animal species can be calculated in vitro. The respective plasma and buffer concentrations were determined via a radioactivity analysis. A detailed description of the method and its validation was published by Schuhmacher et al. (2).

[5] = test system: plasma proteins; test: Protein binding via Transil assay, monkey plasma; assay type: in vitro ADME
Excerpt: as §1

[6] = test system: patients with PAH or CTEPH; test: Phase 1b, inhaled single doses in patients with PAH or CTEPH: pulmonary vascular resistance (PVR), mPAP by right heart catheterization; assay type: in vivo, human
Experimental: Patients with PAH or CTEPH were treated in a clinical phase 1b study with escalating orally inhaled single doses* of 240 μg (2 capsules of 120 μg), 480 μg, 1000 μg, 2000 (2 capsules of 1000 μg) or […] (4 capsules of 1000 μg) of a dry powder of example 4 (see under C-1, e.g. tables 17 and 20), inserted into a handheld inhalation device, inhaled by deep inhalative breath into the deep parts of the lung. (*single dose means the administration of one dosage form/capsule as well as administration of two or more dosage forms/capsules simultaneously or consecutively within a short time period). The included patients had no background treatment with standard of care (SoC) medication for PAH or CTEPH (such as endothelin antagonists, prostanoids, phosphodiesterase type 5 inhibitor or soluble guanylate cyclase stimulators). Patients in this study underwent invasive right heart catheterization as medically indicated routine diagnostic. Primary objective of the study was to investigate the peak percent reduction from baseline in PVR. Patients had to have a baseline pulmonary artery pressure (mPAP) of ≥25 mmHg and a PVR of ≥400 dyn·sec·cm^−5 (5 Wood Units) and were not to show vaso-responsiveness to initial iNO inhalation testing to be included in the per protocol analysis. Plasma concentrations (pharmacokinetics) of the administered drug at several time points after administration were measured and safety and tolerability was assessed.
The study is divided into two parts, Part A and Part B. In Part A escalating aforementioned single doses were administered to patients without background treatment with standard of care (SoC) medication for PAH or CTEPH (such as endothelin antagonists, prostanoids, phosphodiesterase type 5 inhibitor or soluble guanylate cyclase stimulators). In Part B, after finalization of Part A, a selected dose from Part A will be tested in further patients without background SoC treatment (group 1) and additionally in patients on monotherapy with SoC (group 2) and on dual combination therapy with SoC (group 3).
The PVR is a derived parameter from parameters directly measured during the right heart catheterization procedure. The direct parameters included in the calculation are: mean pulmonary arterial pressure [mmHg](mPAP), pulmonary capillary wedge pressure [mmHg](PCWP), and cardiac output [1/min](CO). The PVR is calculated according to the formula: PVR [dyn*sec*cm^−5]=80*(mPAP−PCWP)/CO.

| SMILES | minimal effective nominal dose ([1]; 5% reduction in PAP, nebulized) [µg/kg] | dose dependent efficacy (PAP) during observation interval ([1]; all doses (10, 30 and 100 μg/kg nominal dose), inhaled) [min] | selective PAP effect, duration of maximal effect ([1]; inhaled application, whole observation interval) [min] | duration of action ([1]; minipig model, inhaled) | time of maximal effect on PAP after inhaled application ([1]; nebulized solution) | effect on airway hyper-responsiveness and inflammation [2] | duration of effect (PAP reduction) [3] | fraction unbound, lower than comparative example 1 [4] [times lower] | free fraction, lower than comparative example 1 [5] [times lower] | mean pulmonary arterial pressure (mPAP), mean ± SD ([6]; 1000 μg inhaled single dose, N = 4, 0 D 03 H 00 M) [mmHg] | enduring mean change of PVR from baseline ([6]; 2000 μg group) | enduring mean change of PVR from baseline ([6]; 4000 μg group) | effect sustained with no decrease in response until end of measurement period ([6]; PVR after single inhaled dose) [h] | tolerability ([6]; including the highest dose of 4000 μg) |
| --- | --- | --- | --- | --- | --- | --- | --- | --- | --- | --- | --- | --- | --- | --- |
| O=C(O)c1ccc(CCN(CCc2ccccc2OCc2ccc(-c3ccc(C(F)(F)F)cc3)cc2Cl)[C@H]2CCCc3nc(C(=O)O)ccc32)cc1 [Comparative example 11, (5S)-5-{[2-(4-carboxyphenyl)ethyl][2-(2-{[3-chloro-4′-(trifluoromethyl)[biphenyl]-4-yl]methoxy}phenyl)ethyl]amino}-5,6,7,8-tetrahydroquinoline-2-carboxylic Acid] | 3 | 240 | 240 | sufficient duration of action | about 90 min | inhibitory effect on airway hyper-responsiveness and inflammation | up to 17 hrs | 1.6 | 2 |  |  |  |  |  |
| O=C(O)c1ccc(CCN(CCc2ccccc2OCc2ccc(-c3ccc(C(F)(F)F)cc3)cc2Cl)[C@H]2CCCc3nc(C(=O)O)ccc32)cc1 [Example 4, (5S)—{[2-(4-Carboxyphenyl)ethyl][2-(2-{[3-chloro-4′-(trifluoromethyl)biphenyl-4-yl]methoxy}phenyl)-ethyl]amino}-5,6,7,8-tetrahydroquinoline-2-carboxylic Acid as Monohydrate I] |  |  |  |  |  |  |  |  |  | 34.0 ± 11.6 | approximately −30% | approximately −30% | ≥ 3 | good tolerability |
